From ChEMBL document CHEMBL4007384, “Synthesis and optimization of furano[3,2-d]pyrimidines as selective spleen tyrosine kinase (Syk) inhibitors” (Bioorg Med Chem Lett, 2016)

Tests used:
[1] = target: Dual specificity mitogen-activated protein kinase kinase 1 (Homo sapiens, UniProt Q02750); assay: Inhibition of MEK1 (unknown origin) after 60 mins by TR-FRET assay
[2] = target: Mitogen-activated protein kinase 9 (Homo sapiens, UniProt P45984); assay: Inhibition of JNK2 (unknown origin) after 60 mins by TR-FRET assay
[3] = target: Dual specificity mitogen-activated protein kinase kinase 2 (Homo sapiens, UniProt P36507); assay: Inhibition of MEK2 (unknown origin) after 60 mins by TR-FRET assay
Sequence of Dual specificity mitogen-activated protein kinase kinase 2 (P36507 whole entry): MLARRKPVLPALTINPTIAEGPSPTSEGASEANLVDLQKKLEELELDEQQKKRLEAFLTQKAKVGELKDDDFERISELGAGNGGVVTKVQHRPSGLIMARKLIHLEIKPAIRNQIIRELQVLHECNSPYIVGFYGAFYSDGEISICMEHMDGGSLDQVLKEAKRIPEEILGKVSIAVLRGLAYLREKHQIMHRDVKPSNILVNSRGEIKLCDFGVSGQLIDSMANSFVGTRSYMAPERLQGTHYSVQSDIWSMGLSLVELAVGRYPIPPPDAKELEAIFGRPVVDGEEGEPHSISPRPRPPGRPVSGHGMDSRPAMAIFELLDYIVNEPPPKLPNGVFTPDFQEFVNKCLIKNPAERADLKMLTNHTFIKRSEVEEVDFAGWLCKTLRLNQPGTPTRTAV

[4] = target: Leukocyte tyrosine kinase receptor (Homo sapiens, UniProt P29376); assay: Inhibition of LTK (unknown origin) after 60 mins by TR-FRET assay
Sequence of Leukocyte tyrosine kinase receptor (P29376 whole entry): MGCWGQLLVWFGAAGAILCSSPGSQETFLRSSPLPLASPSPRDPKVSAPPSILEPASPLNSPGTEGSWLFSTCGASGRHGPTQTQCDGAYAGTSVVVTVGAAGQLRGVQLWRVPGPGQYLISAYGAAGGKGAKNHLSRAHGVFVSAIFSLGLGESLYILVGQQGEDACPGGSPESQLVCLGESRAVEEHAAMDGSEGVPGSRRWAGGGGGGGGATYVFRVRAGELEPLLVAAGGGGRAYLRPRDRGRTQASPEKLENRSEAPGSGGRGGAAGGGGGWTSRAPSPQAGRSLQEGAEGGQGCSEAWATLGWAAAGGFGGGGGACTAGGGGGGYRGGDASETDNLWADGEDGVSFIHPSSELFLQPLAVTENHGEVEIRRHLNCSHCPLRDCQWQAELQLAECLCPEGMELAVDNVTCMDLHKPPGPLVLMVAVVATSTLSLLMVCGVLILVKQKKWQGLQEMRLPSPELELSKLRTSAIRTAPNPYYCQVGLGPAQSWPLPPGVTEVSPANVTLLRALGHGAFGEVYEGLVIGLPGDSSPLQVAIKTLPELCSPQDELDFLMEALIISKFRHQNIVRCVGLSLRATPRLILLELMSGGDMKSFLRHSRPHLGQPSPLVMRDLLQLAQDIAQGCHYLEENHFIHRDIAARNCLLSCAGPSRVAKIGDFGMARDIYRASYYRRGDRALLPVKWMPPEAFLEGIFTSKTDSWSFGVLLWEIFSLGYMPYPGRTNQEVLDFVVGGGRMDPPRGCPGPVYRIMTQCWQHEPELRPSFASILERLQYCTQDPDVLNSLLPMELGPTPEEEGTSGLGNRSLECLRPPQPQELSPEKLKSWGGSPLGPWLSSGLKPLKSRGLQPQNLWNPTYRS

[5] = target: T1, Tyrosine-protein kinase JAK3 (Homo sapiens, UniProt P52333); assay: Inhibition of JAK3 (unknown origin) after 60 mins by TR-FRET assay
T1 sequence (P52333 whole entry): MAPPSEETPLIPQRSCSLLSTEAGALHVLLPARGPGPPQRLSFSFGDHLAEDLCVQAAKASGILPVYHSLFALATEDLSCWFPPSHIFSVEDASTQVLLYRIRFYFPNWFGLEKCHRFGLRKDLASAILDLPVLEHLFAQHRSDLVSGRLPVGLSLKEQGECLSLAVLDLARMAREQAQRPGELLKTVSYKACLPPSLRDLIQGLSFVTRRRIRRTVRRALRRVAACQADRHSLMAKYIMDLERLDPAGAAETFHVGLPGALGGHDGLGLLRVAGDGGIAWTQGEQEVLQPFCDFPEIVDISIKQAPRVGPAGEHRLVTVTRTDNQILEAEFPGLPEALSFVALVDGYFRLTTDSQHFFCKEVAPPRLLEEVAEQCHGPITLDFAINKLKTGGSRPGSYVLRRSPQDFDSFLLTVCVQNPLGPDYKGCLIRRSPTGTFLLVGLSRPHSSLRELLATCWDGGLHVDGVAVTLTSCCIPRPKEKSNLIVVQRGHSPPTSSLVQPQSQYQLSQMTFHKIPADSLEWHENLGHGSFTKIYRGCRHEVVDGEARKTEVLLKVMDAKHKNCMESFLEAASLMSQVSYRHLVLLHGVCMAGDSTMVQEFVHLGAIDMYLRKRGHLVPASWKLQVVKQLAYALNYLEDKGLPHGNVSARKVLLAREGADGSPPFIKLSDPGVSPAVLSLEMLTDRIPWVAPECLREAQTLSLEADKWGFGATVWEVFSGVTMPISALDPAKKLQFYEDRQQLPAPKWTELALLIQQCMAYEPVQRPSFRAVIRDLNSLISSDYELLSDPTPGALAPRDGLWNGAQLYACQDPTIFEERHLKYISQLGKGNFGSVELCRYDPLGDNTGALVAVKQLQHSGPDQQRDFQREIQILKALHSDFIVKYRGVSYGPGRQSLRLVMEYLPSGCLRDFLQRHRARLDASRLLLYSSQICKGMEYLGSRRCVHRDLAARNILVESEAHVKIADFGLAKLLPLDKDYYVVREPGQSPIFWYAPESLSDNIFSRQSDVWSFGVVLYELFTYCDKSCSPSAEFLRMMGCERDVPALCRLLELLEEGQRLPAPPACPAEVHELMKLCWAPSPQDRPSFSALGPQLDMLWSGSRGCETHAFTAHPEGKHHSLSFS

[6] = target: Dual specificity tyrosine-phosphorylation-regulated kinase 1A (Homo sapiens, UniProt Q13627); assay: Inhibition of DYRK1A (unknown origin) after 60 mins by TR-FRET assay
[7] = target: BDNF/NT-3 growth factors receptor (Homo sapiens, UniProt Q16620); assay: Inhibition of TrkB (unknown origin) after 60 mins by TR-FRET assay
Sequence of BDNF/NT-3 growth factors receptor (Q16620 whole entry): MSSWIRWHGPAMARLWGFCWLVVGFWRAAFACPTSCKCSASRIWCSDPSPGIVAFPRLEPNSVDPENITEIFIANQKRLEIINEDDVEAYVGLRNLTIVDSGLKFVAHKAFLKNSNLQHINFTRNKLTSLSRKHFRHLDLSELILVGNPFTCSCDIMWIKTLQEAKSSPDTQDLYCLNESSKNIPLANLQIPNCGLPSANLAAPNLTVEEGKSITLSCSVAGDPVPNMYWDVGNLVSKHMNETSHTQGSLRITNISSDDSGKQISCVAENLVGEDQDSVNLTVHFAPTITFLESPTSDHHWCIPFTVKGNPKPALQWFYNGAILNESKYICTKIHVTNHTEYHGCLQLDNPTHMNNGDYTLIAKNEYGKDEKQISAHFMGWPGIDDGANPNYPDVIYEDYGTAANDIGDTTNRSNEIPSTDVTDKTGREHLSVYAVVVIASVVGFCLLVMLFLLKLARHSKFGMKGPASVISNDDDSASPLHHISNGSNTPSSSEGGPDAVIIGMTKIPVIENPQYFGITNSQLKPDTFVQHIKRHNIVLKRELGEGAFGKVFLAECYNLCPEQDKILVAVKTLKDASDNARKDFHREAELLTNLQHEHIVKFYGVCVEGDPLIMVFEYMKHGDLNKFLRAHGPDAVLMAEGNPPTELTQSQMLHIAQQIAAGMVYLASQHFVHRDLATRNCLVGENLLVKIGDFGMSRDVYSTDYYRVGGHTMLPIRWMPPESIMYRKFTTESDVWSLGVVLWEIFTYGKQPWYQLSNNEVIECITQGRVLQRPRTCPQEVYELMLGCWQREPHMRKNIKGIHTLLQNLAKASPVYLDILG

[8] = target: Fibroblast growth factor receptor 1 (Homo sapiens, UniProt P11362); assay: Inhibition of FGFR1 (unknown origin) after 60 mins by TR-FRET assay
Sequence of Fibroblast growth factor receptor 1 (P11362 whole entry): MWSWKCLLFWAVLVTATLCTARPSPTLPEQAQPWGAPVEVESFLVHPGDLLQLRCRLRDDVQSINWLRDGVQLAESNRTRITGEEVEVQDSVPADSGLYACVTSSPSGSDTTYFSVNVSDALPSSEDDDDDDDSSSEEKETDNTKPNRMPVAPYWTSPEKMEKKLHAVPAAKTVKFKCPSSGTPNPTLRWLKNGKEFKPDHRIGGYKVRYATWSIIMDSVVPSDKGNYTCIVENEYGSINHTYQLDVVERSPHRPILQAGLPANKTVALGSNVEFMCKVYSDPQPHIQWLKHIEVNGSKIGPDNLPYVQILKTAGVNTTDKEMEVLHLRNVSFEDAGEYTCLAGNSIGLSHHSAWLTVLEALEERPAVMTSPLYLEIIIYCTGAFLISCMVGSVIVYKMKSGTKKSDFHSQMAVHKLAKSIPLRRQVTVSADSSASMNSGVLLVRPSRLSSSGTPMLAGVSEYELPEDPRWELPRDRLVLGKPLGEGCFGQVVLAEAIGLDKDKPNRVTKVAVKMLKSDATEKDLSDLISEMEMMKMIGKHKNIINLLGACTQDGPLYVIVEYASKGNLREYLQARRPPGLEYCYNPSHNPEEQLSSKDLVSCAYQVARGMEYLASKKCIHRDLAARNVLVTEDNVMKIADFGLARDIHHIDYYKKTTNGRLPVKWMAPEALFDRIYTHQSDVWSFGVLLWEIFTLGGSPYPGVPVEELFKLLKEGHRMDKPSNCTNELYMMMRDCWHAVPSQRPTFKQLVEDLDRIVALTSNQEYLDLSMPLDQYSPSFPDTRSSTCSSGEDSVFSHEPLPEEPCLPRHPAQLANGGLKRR

MAP kinase p38 = MAP kinase p38 (Homo sapiens, UniProt O15264+Q15759+Q16539+P53778); assay: Inhibition of p38 (unknown origin) after 60 mins by TR-FRET assay
Wee1-like protein kinase = Wee1-like protein kinase (Homo sapiens, UniProt P30291); assay: Inhibition of Wee1 (unknown origin) after 60 mins by TR-FRET assay
[9] = target: Dual specificity tyrosine-phosphorylation-regulated kinase 1B (Homo sapiens, UniProt Q9Y463); assay: Inhibition of DYRK1B (unknown origin) after 60 mins by TR-FRET assay
[10] = target: T2, Mitogen-activated protein kinase kinase kinase kinase 2 (Homo sapiens, UniProt Q12851); assay: Inhibition of MAP4K2 (unknown origin) after 60 mins by TR-FRET assay
T2 sequence (Q12851 whole entry): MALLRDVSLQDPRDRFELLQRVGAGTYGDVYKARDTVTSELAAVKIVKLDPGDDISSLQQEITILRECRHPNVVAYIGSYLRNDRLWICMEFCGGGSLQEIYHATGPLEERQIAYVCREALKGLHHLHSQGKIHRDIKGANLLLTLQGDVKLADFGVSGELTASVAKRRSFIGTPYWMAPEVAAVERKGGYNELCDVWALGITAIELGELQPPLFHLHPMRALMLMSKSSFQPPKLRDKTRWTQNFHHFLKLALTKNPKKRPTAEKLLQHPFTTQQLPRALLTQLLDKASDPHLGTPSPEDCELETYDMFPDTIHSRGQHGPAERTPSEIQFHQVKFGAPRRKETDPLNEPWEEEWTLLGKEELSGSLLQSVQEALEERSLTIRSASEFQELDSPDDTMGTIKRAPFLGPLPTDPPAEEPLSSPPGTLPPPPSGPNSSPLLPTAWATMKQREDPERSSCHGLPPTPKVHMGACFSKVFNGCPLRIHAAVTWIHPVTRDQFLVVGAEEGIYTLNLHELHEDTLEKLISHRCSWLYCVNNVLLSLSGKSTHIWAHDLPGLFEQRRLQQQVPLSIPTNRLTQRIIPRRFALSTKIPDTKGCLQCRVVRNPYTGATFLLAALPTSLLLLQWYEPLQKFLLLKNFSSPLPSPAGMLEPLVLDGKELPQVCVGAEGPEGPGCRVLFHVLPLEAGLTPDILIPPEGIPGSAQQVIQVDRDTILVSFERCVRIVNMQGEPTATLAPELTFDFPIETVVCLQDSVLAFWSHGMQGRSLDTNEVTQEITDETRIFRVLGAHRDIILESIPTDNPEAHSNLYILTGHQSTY

[11] = target: Vascular endothelial growth factor receptor 2 (Homo sapiens, UniProt P35968); assay: Inhibition of KDR (unknown origin) after 60 mins by TR-FRET assay
Sequence of Vascular endothelial growth factor receptor 2 (P35968 whole entry): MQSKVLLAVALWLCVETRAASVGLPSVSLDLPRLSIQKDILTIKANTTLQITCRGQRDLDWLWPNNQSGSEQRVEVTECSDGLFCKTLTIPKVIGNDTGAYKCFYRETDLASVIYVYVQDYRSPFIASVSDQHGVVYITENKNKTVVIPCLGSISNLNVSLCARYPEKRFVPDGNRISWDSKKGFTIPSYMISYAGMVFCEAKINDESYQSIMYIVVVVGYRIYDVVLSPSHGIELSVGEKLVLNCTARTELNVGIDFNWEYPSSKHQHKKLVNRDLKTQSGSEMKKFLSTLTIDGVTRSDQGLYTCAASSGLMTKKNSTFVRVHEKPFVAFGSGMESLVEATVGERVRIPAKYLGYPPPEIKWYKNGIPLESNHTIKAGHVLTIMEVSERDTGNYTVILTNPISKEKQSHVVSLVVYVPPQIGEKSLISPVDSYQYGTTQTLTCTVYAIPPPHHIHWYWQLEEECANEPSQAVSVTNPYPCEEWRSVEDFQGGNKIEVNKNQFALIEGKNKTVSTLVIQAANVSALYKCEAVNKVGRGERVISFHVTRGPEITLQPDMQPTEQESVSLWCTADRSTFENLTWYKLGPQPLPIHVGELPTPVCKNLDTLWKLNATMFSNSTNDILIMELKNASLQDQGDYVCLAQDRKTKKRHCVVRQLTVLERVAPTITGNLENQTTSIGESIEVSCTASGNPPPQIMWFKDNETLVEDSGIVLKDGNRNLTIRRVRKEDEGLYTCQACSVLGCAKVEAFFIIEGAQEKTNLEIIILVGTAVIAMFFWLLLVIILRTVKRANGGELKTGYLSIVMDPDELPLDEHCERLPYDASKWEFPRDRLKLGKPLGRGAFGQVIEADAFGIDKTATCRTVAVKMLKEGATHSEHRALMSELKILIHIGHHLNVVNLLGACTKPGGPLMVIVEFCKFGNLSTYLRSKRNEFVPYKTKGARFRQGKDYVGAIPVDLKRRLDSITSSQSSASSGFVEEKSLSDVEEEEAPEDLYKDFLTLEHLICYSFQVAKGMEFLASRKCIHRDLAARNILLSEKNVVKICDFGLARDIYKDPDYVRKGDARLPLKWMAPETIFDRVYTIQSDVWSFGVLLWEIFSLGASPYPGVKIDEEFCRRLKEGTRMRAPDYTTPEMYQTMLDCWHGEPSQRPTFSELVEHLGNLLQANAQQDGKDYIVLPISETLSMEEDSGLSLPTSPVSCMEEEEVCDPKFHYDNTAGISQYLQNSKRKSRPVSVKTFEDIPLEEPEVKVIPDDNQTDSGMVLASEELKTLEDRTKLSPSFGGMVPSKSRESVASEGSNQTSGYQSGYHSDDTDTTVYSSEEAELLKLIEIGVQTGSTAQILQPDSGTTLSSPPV

[12] = target: ALK tyrosine kinase receptor (Homo sapiens, UniProt Q9UM73); assay: Inhibition of ALK (unknown origin) after 60 mins by TR-FRET assay

Sequence of Dual specificity mitogen-activated protein kinase kinase 1 (Q02750 whole entry): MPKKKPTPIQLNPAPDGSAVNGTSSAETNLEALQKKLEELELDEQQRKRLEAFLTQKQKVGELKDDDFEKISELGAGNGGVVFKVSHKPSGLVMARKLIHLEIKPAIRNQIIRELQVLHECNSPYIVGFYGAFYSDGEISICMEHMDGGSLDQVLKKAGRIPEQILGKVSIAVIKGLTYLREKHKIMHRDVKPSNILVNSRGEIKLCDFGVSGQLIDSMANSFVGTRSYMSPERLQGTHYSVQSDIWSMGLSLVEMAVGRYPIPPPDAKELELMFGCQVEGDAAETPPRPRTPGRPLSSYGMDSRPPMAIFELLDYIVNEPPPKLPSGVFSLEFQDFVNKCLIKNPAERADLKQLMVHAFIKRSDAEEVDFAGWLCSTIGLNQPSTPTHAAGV

| SMILES | IC50 [1] | IC50 [2] | IC50 [3] | IC50 [4] | IC50 [5] | IC50 [6] | IC50 [7] | IC50 [8] | IC50 (MAP kinase p38) | IC50 (Wee1-like protein kinase) | IC50 [9] | IC50 [10] | IC50 [11] | IC50 [12] |
| --- | --- | --- | --- | --- | --- | --- | --- | --- | --- | --- | --- | --- | --- | --- |
| Cc1n[nH]c2cc(Nc3nc(NC4CC4)c4occc4n3)ccc12 | > 10 µM | > 10 µM | > 10 µM | 6.01 µM | > 10 µM | > 10 µM | > 10 µM | > 10 µM | > 10 µM | > 10 µM | > 10 µM | 6.24 µM | – | – |
| FC(F)(F)CNc1nc(Nc2ccc3cn[nH]c3c2)nc2ccoc12 | > 10 µM | > 10 µM | > 10 µM | 7.4 µM | > 10 µM | 4.86 µM | – | > 10 µM | > 10 µM | > 10 µM | – | – | > 10 µM | 7.63 µM |
| CC1(C)OCC(=O)Nc2cc(Nc3nc(NCC(F)(F)F)c4occc4n3)ccc21 | > 10 µM | > 10 µM | > 10 µM | 5.11 µM | > 10 µM | > 10 µM | 0.379 µM | > 10 µM | > 10 µM | 9.88 µM | > 10 µM | 2.94 µM | 3.35 µM | > 10 µM |
| FC(F)(F)CNc1nc(Nc2ccc(N3CCOCC3)c(Cl)c2)nc2ccoc12 | > 10 µM | > 10 µM | > 10 µM | > 10 µM | > 10 µM | > 10 µM | 8.34 µM | > 10 µM | – | > 10 µM | > 10 µM | 1.57 µM | > 10 µM | > 10 µM |
